Source: article PMC7150870 (Toxins, 2020)
Marks after values point to notes of the source that are not given here.

Tests used:
HEK293T [1] = format: cell-based, human
cells = details: cited from earlier work
HEK 293T cells = format: cell-based, human
Caco-2 = format: cell-based, human
HepG2 = format: cell-based, human
HEK293T [2] = format: cell-based, human; remark: listed apart in the source
HEK293T cells = format: cell-based, human; details: read-out: IC50 halving the HEK293T cells viability
[3] = test system: HepG2, Caco-2, RAW 264.7, and HEK 293T cells; details: read-out: IC50 range in studied cells
RAW 264.7 = format: cell-based, mouse

beauvericin
combination index, mixture of DAS (6.58 nM) (HEK293T [1]): 0.96 ± 0.04 Add | combination index, mixture of HT-2 (21.22 nM) (HEK293T [1]): 0.91 ± 0.04 Add | combination index, mixture of T-2 (3.87 nM) (HEK293T [1]): 0.95 ± 0.07 Add | type of interaction, mixture of DAS (6.58 nM) (HEK293T [1]): 0.96 ± 0.04 Add (key: Syn: Combination index (CI) < 0.9; Add: 0.9 ≤ CI ≤ 1; Ant: CI > 1) | type of interaction, mixture of HT-2 (21.22 nM) (HEK293T [1]): 0.91 ± 0.04 Add (key: Syn: Combination index (CI) < 0.9; Add: 0.9 ≤ CI ≤ 1; Ant: CI > 1) | type of interaction, mixture of T-2 (3.87 nM) (HEK293T [1]): 0.95 ± 0.07 Add (key: Syn: Combination index (CI) < 0.9; Add: 0.9 ≤ CI ≤ 1; Ant: CI > 1) | concentration with statistically significant decrease in viability of cells (cells): 3 µM

diacetoxyscirpenol [DAS]
metabolites found by non-target U-HPLC-MS analysis (Caco-2 cells): 15-monoacetoxyscirpenol, 4-monoacetoxyscirpenol, 7-hydroxy, 8β-hydroxy, and deepoxy-15- monoacetoxyscirpenol | transepithelial transport, Apical Medium (Caco-2 cells): 29.61 ± 0.87^abc % | transepithelial transport, Basolateral Medium (Caco-2 cells): 40.12 ± 0.50^f % | transepithelial transport, Caco-2 Cells (Caco-2 cells): 0.02 ± 0.00^a % | transepithelial transport, Raw 264.7 Cells (Caco-2 cells): 0.02 ± 0.00^a % | transepithelial transport, Total (Caco-2 cells): 69.77 ± 0.99^cd % | combination index, silibinin 0.9 µM (HEK 293T cells): 1.00 ± 0.04 Add | combination index, silibinin 1.7 µM (HEK 293T cells): 1.23 ± 0.06 Ant | combination index, silibinin 3.4 µM (HEK 293T cells): 1.21 ± 0.05 Ant | combination index, silibinin 6.8 µM (HEK 293T cells): 1.50 ± 0.04 Ant | combination index, silibinin 13.6 µM (HEK 293T cells): 1.56 ± 0.13 Ant | combination index, silibinin 27.3 µM (HEK 293T cells): 1.48 ± 0.08 Ant | combination index, silibinin 54.5 µM (HEK 293T cells): 1.15 ± 0.02 Ant | combination index, silibinin 109.00 µM (HEK 293T cells): 1.14 ± 0.01 Ant | type of interaction, silibinin 0.9 µM (HEK 293T cells): 1.00 ± 0.04 Add (key: Syn: Combination index (CI) < 0.9; Add: 0.9 ≤ CI ≤ 1; Ant: CI > 1) | type of interaction, silibinin 1.7 µM (HEK 293T cells): 1.23 ± 0.06 Ant (key: Syn: Combination index (CI) < 0.9; Add: 0.9 ≤ CI ≤ 1; Ant: CI > 1) | type of interaction, silibinin 3.4 µM (HEK 293T cells): 1.21 ± 0.05 Ant (key: Syn: Combination index (CI) < 0.9; Add: 0.9 ≤ CI ≤ 1; Ant: CI > 1) | type of interaction, silibinin 6.8 µM (HEK 293T cells): 1.50 ± 0.04 Ant (key: Syn: Combination index (CI) < 0.9; Add: 0.9 ≤ CI ≤ 1; Ant: CI > 1) | type of interaction, silibinin 13.6 µM (HEK 293T cells): 1.56 ± 0.13 Ant (key: Syn: Combination index (CI) < 0.9; Add: 0.9 ≤ CI ≤ 1; Ant: CI > 1) | type of interaction, silibinin 27.3 µM (HEK 293T cells): 1.48 ± 0.08 Ant (key: Syn: Combination index (CI) < 0.9; Add: 0.9 ≤ CI ≤ 1; Ant: CI > 1) | type of interaction, silibinin 54.5 µM (HEK 293T cells): 1.15 ± 0.02 Ant (key: Syn: Combination index (CI) < 0.9; Add: 0.9 ≤ CI ≤ 1; Ant: CI > 1) | type of interaction, silibinin 109.00 µM (HEK 293T cells): 1.14 ± 0.01 Ant (key: Syn: Combination index (CI) < 0.9; Add: 0.9 ≤ CI ≤ 1; Ant: CI > 1) | IC50 (Caco-2): 17.7 ± 0.66 nM | IC50 (HepG2): 13.4 ± 1.79 nM | combination index, mixture of T-2 (3.87 nM) (HEK293T [1]): 0.64 ± 0.01 Syn | type of interaction, mixture of T-2 (3.87 nM) (HEK293T [1]): 0.64 ± 0.01 Syn (key: Syn: Combination index (CI) < 0.9; Add: 0.9 ≤ CI ≤ 1; Ant: CI > 1) | IC50 (HEK293T [2]): 6.58 ± 0.36 nM | IC50 (HEK293T cells): 15 nM | IC50 [3]: 3.66 to 17.7 nM | IC50 (RAW 264.7): 3.66 ± 0.37 nM

enniatin A1 [ENN-A1]
combination index, mixture of DAS (6.58 nM) (HEK293T [1]): 0.79 ± 0.04 Syn | combination index, mixture of HT-2 (21.22 nM) (HEK293T [1]): 0.93 ± 0.01 Add | combination index, mixture of T-2 (3.87 nM) (HEK293T [1]): 1.27 ± 0.13 Ant | type of interaction, mixture of DAS (6.58 nM) (HEK293T [1]): 0.79 ± 0.04 Syn (key: Syn: Combination index (CI) < 0.9; Add: 0.9 ≤ CI ≤ 1; Ant: CI > 1) | type of interaction, mixture of HT-2 (21.22 nM) (HEK293T [1]): 0.93 ± 0.01 Add (key: Syn: Combination index (CI) < 0.9; Add: 0.9 ≤ CI ≤ 1; Ant: CI > 1) | type of interaction, mixture of T-2 (3.87 nM) (HEK293T [1]): 1.27 ± 0.13 Ant (key: Syn: Combination index (CI) < 0.9; Add: 0.9 ≤ CI ≤ 1; Ant: CI > 1) | concentration with statistically significant decrease in viability of cells (cells): 1 µM

enniatin A [ENN-A]
combination index, mixture of DAS (6.58 nM) (HEK293T [1]): 0.83 ± 0.05 Syn | combination index, mixture of HT-2 (21.22 nM) (HEK293T [1]): 0.80 ± 0.06 Syn | combination index, mixture of T-2 (3.87 nM) (HEK293T [1]): 0.86 ± 0.07 Syn | type of interaction, mixture of DAS (6.58 nM) (HEK293T [1]): 0.83 ± 0.05 Syn (key: Syn: Combination index (CI) < 0.9; Add: 0.9 ≤ CI ≤ 1; Ant: CI > 1) | type of interaction, mixture of HT-2 (21.22 nM) (HEK293T [1]): 0.80 ± 0.06 Syn (key: Syn: Combination index (CI) < 0.9; Add: 0.9 ≤ CI ≤ 1; Ant: CI > 1) | type of interaction, mixture of T-2 (3.87 nM) (HEK293T [1]): 0.86 ± 0.07 Syn (key: Syn: Combination index (CI) < 0.9; Add: 0.9 ≤ CI ≤ 1; Ant: CI > 1) | concentration with statistically significant decrease in viability of cells (cells): 1 µM
